From ChEMBL document CHEMBL1201862, “PubChem BioAssay data set” (2004)
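Following 48 hours of exposure in 96-well plates, responses at five concentrations were used to interpolate endpoints linearly. At the GI50, growth is halved.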 Calls of active or inactive are those of the source. Cut-off read from the data, not from the text of the source: active = GI50 up to about 1.1 µM and inactive = higher. Where a SMILES comes first, the peptide text is derived from it. [ ]: non-standard residue; d: D form. The star is where a group is joined. Cbz = O=C(OCc1ccccc1)*; Aib = CC(C)(N)C(=O)O; OBn = c1ccc(CO*)cc1

How the values were obtained:
Assay in all cases: NCI tumour cell line growth inhibition, 48 h
HCT-15 = tested on: HCT-15
Hs-578T = tested on: Hs-578T
KM12 = tested on: KM12
LOX IMVI = tested on: LOX IMVI
MDA-MB-435 = tested on: MDA-MB-435
MDA-N = tested on: MDA-N
MOLT-4 = tested on: MOLT-4
Malme-3M = tested on: Malme-3M
NCI-H226 = tested on: NCI-H226
NCI-H23 = tested on: NCI-H23
NCI-H460 = tested on: NCI-H460
OVCAR-3 = tested on: OVCAR-3
OVCAR-4 = tested on: OVCAR-4
OVCAR-8 = tested on: OVCAR-8
PC-3 = tested on: PC-3
RXF 393 = tested on: RXF 393
SK-OV-3 = tested on: SK-OV-3
SNB-19 = tested on: SNB-19
U-251 = tested on: U-251
UACC-257 = tested on: UACC-257

## CCN1C[C@]2(C)CC[C@H](OCc3ccccc3)C34C5C[C@@H]6CC[C@](O)(C(C[C@@H]32)C14)C5[C@H]6OCc1ccccc1 (stereo not given in full)
HCT-15
  GI50: > 100 µM
Hs-578T
  GI50: > 100 µM (inactive)
KM12
  GI50: 38.5 µM (inactive)
LOX IMVI
  GI50: > 100 µM (inactive)
MDA-MB-435
  GI50: 90.8 µM (inactive)
MDA-N
  GI50: 75.5 µM (inactive)
MOLT-4
  GI50: 16.7 µM (inactive)
Malme-3M
  GI50: > 100 µM (inactive)
NCI-H226
  GI50: > 100 µM (inactive)
NCI-H23
  GI50: > 100 µM (inactive)
NCI-H460
  GI50: 31.2 µM (inactive)
OVCAR-3
  GI50: 35.6 µM (inactive)
OVCAR-4
  GI50: 85.1 µM (inactive)
OVCAR-8
  GI50: 93.8 µM (inactive)
PC-3
  GI50: 21.7 µM (inactive)
RXF 393
  GI50: 53.1 µM (inactive)
SK-OV-3
  GI50: > 100 µM (inactive)
SNB-19
  GI50: > 100 µM (inactive)
U-251
  GI50: 64.9 µM (inactive)
UACC-257
  GI50: 29.9 µM (inactive)

## COc1ccc(CNC(C)C(=O)O)cc1 (stereo not given)
HCT-15
  GI50: > 100 µM
Hs-578T
  GI50: > 100 µM (inactive)
KM12
  GI50: > 100 µM (inactive)
LOX IMVI
  GI50: > 100 µM (inactive)
MDA-MB-435
  GI50: > 100 µM (inactive)
MDA-N
  GI50: > 100 µM (inactive)
MOLT-4
  GI50: > 100 µM (inactive)
Malme-3M
  GI50: > 100 µM (inactive)
NCI-H226
  GI50: > 100 µM (inactive)
NCI-H23
  GI50: > 100 µM (inactive)
NCI-H460
  GI50: > 100 µM (inactive)
OVCAR-3
  GI50: > 100 µM (inactive)
OVCAR-4
  GI50: > 100 µM (inactive)
OVCAR-8
  GI50: > 100 µM (inactive)
PC-3
  GI50: > 100 µM (inactive)
RXF 393
  GI50: > 100 µM (inactive)
SK-OV-3
  GI50: > 100 µM (inactive)
SNB-19
  GI50: > 100 µM (inactive)
U-251
  GI50: > 100 µM (inactive)
UACC-257
  GI50: > 100 µM (inactive)

## Cc1ccc2nc(-c3ccc(N)c(Br)c3)sc2c1
HCT-15
  GI50: 7.01 µM
Hs-578T
  GI50: 14.2 µM (inactive)
KM12
  GI50: 7.41 µM (inactive)
LOX IMVI
  GI50: 13.2 µM (inactive)
MDA-MB-435
  GI50: 5.4 µM (inactive)
MDA-N
  GI50: > 100 µM (inactive)
MOLT-4
  GI50: 4.33 µM (inactive)
Malme-3M
  GI50: > 100 µM (inactive)
NCI-H226
  GI50: 17.5 µM (inactive)
NCI-H23
  GI50: 22.2 µM (inactive)
NCI-H460
  GI50: 5.6 µM (inactive)
OVCAR-3
  GI50: 10.1 µM (inactive)
OVCAR-4
  GI50: 33.5 µM (inactive)
OVCAR-8
  GI50: 48.2 µM (inactive)
PC-3
  GI50: 22.2 µM (inactive)
RXF 393
  GI50: 18.2 µM (inactive)
SK-OV-3
  GI50: 22.5 µM (inactive)
SNB-19
  GI50: 81.8 µM (inactive)
U-251
  GI50: 37.5 µM (inactive)
UACC-257
  GI50: 20 µM (inactive)

## CC(NC(=O)C(C)(C)NC(=O)C(CC(=O)OCc1ccccc1)NC(=O)OCc1ccccc1)C(N)=O (stereo not given) (Cbz-Asp(OBn)-[Aib]-Ala-NH2; configuration not given here)
HCT-15
  GI50: > 100 µM
Hs-578T
  GI50: > 100 µM (inactive)
KM12
  GI50: > 100 µM (inactive)
LOX IMVI
  GI50: > 100 µM (inactive)
MDA-MB-435
  GI50: > 100 µM (inactive)
MDA-N
  GI50: > 100 µM (inactive)
MOLT-4
  GI50: > 100 µM (inactive)
Malme-3M
  GI50: > 100 µM (inactive)
NCI-H226
  GI50: > 100 µM (inactive)
NCI-H23
  GI50: > 100 µM (inactive)
NCI-H460
  GI50: > 100 µM (inactive)
OVCAR-3
  GI50: > 100 µM (inactive)
OVCAR-4
  GI50: > 100 µM (inactive)
OVCAR-8
  GI50: > 100 µM (inactive)
PC-3
  GI50: > 100 µM (inactive)
RXF 393
  GI50: > 100 µM (inactive)
SK-OV-3
  GI50: > 100 µM (inactive)
SNB-19
  GI50: > 100 µM (inactive)
U-251
  GI50: > 100 µM (inactive)
UACC-257
  GI50: > 100 µM (inactive)

## COC(=O)C#CC1(O)C=CC(=O)C=C1
HCT-15
  GI50: 0.248 µM
Hs-578T
  GI50: 2.79 µM (inactive)
KM12
  GI50: 0.843 µM (active)
LOX IMVI
  GI50: 0.275 µM (active)
MDA-MB-435
  GI50: 0.436 µM (active)
MDA-N
  GI50: 1.18 µM (inactive)
MOLT-4
  GI50: 0.0933 µM (active)
Malme-3M
  GI50: 2 µM (inactive)
NCI-H226
  GI50: 5.07 µM (inactive)
NCI-H23
  GI50: 1.57 µM (inactive)
NCI-H460
  GI50: 2.71 µM (inactive)
OVCAR-3
  GI50: 0.367 µM (active)
OVCAR-4
  GI50: 3.13 µM (inactive)
OVCAR-8
  GI50: 0.203 µM (active)
PC-3
  GI50: 1.29 µM (inactive)
RXF 393
  GI50: 1.58 µM (inactive)
SK-OV-3
  GI50: 28 µM (inactive)
SNB-19
  GI50: 4.63 µM (inactive)
U-251
  GI50: 0.841 µM (active)
UACC-257
  GI50: 1.15 µM (inactive)

## CCC(O)(Cc1ccc(OC)cc1)c1ccc(OC)cc1 (stereo not given)
HCT-15
  GI50: > 100 µM
Hs-578T
  GI50: > 100 µM (inactive)
KM12
  GI50: > 100 µM (inactive)
LOX IMVI
  GI50: > 100 µM (inactive)
MDA-MB-435
  GI50: > 100 µM (inactive)
MDA-N
  GI50: > 100 µM (inactive)
MOLT-4
  GI50: > 100 µM (inactive)
Malme-3M
  GI50: > 100 µM (inactive)
NCI-H226
  GI50: > 100 µM (inactive)
NCI-H23
  GI50: > 100 µM (inactive)
NCI-H460
  GI50: > 100 µM (inactive)
OVCAR-3
  GI50: > 100 µM (inactive)
OVCAR-4
  GI50: 84.7 µM (inactive)
OVCAR-8
  GI50: > 100 µM (inactive)
PC-3
  GI50: > 100 µM (inactive)
RXF 393
  GI50: > 100 µM (inactive)
SK-OV-3
  GI50: > 100 µM (inactive)
SNB-19
  GI50: > 100 µM (inactive)
U-251
  GI50: > 100 µM (inactive)
UACC-257
  GI50: > 100 µM (inactive)

## O=C(O)CCc1ccc(-c2ccccc2)[nH]1
HCT-15
  GI50: > 100 µM
Hs-578T
  GI50: > 100 µM (inactive)
KM12
  GI50: > 100 µM (inactive)
LOX IMVI
  GI50: > 100 µM (inactive)
MDA-MB-435
  GI50: > 100 µM (inactive)
MDA-N
  GI50: > 100 µM (inactive)
MOLT-4
  GI50: > 100 µM (inactive)
Malme-3M
  GI50: > 100 µM (inactive)
NCI-H226
  GI50: > 100 µM (inactive)
NCI-H23
  GI50: > 100 µM (inactive)
NCI-H460
  GI50: > 100 µM (inactive)
OVCAR-3
  GI50: > 100 µM (inactive)
OVCAR-4
  GI50: > 100 µM (inactive)
OVCAR-8
  GI50: > 100 µM (inactive)
PC-3
  GI50: > 100 µM (inactive)
RXF 393
  GI50: > 100 µM (inactive)
SK-OV-3
  GI50: > 100 µM (inactive)
SNB-19
  GI50: > 100 µM (inactive)
U-251
  GI50: > 100 µM (inactive)
UACC-257
  GI50: > 100 µM (inactive)
